# Reference: ChEMBL document CHEMBL1201862, “PubChem BioAssay data set” (2004)
#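 Exposure lasted 48 hours, with cells grown in 96-well plates and compounds tested at five concentrations. The concentration for 50% growth inhibition is given as GI50.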 Active and inactive are the calls of the source. Rule as the data show it: active = GI50 up to about 1.1 µM and inactive = higher.
# Experiments:
# Experiment in all cases: NCI-60 cell line screen, 48 h
# [1] = test system: Malme-3M
# [2] = test system: UACC-62
# [3] = test system: OVCAR-8
# [4] = test system: MOLT-4
# [5] = test system: ACHN
# [6] = test system: COLO 205
# [7] = test system: SF-539
# [8] = test system: NCI-H226
# [9] = test system: SF-268
# [10] = test system: HCC 2998
# [11] = test system: U-251
# [12] = test system: UACC-257
# [13] = test system: SNB-19
# [14] = test system: SK-MEL-28
# [15] = test system: SNB-78
# [16] = test system: EKVX
# [17] = test system: HCT-116
# [18] = test system: M14
# [19] = test system: M19-MEL
# [20] = test system: RXF 393
# [21] = test system: HOP-92
# [22] = test system: LXFL 529
# [23] = test system: UO-31
# [24] = test system: DMS-114
# [25] = test system: CAKI-1
# [26] = test system: A549
# [27] = test system: KM-20L2
# [28] = test system: SNB-75
# [29] = test system: RPMI-8226
# [30] = test system: SF-295
# [31] = test system: SK-MEL-5
# [32] = test system: OVCAR-3
# [33] = test system: K562
# [34] = test system: HOP-18
# [35] = test system: HL-60
# [36] = test system: NCI-H522
# [37] = test system: A498
# [38] = test system: CCRF-CEM
# [39] = test system: SK-OV-3
# [40] = test system: OVCAR-4
# [41] = test system: NCI-H23
# [42] = test system: SW-620
# [43] = test system: LOX IMVI
# [44] = test system: RXF 631
# [45] = test system: IGROV-1
# [46] = test system: DLD-1
# [47] = test system: SN12C
# [48] = test system: SR
# [49] = test system: HCT-15
# [50] = test system: 786-0
# [51] = test system: DMS-273
# [52] = test system: HT-29
# [53] = test system: KM12
# [54] = test system: TK-10
# [55] = test system: OVCAR-5
# [56] = test system: HOP-62
# [57] = test system: XF498
# [58] = test system: NCI-H460
# [59] = test system: SK-MEL-2
smiles,measurement,setting,value
C/C(=N\NC(C)(C)C)c1sc(-c2nc(C)c(/C(C)=N/NC(C)(C)C)s2)nc1C,GI50,[1],> 100 µM (inactive)
same,GI50,[2],> 100 µM (inactive)
same,GI50,[3],> 100 µM (inactive)
same,GI50,[4],> 100 µM (inactive)
same,GI50,[5],> 100 µM (inactive)
same,GI50,[6],> 100 µM (inactive)
same,GI50,[7],> 100 µM (inactive)
same,GI50,[8],> 100 µM (inactive)
same,GI50,[9],> 100 µM (inactive)
same,GI50,[10],> 100 µM (inactive)
same,GI50,[11],> 100 µM (inactive)
same,GI50,[12],> 100 µM (inactive)
same,GI50,[13],> 100 µM (inactive)
same,GI50,[14],> 100 µM (inactive)
same,GI50,[15],> 100 µM (inactive)
same,GI50,[16],> 100 µM (inactive)
same,GI50,[17],> 100 µM (inactive)
same,GI50,[18],> 100 µM (inactive)
same,GI50,[19],> 100 µM (inactive)
same,GI50,[20],> 100 µM (inactive)
same,GI50,[21],> 100 µM (inactive)
same,GI50,[22],> 100 µM (inactive)
same,GI50,[23],> 100 µM (inactive)
same,GI50,[24],> 100 µM (inactive)
same,GI50,[25],> 100 µM (inactive)
same,GI50,[26],> 100 µM (inactive)
same,GI50,[27],> 100 µM (inactive)
same,GI50,[28],8.32 µM (inactive)
same,GI50,[29],> 100 µM (inactive)
same,GI50,[30],> 100 µM (inactive)
same,GI50,[31],> 100 µM (inactive)
same,GI50,[32],> 100 µM (inactive)
same,GI50,[33],> 100 µM (inactive)
same,GI50,[34],> 100 µM (inactive)
same,GI50,[35],> 100 µM (inactive)
same,GI50,[36],> 100 µM (inactive)
same,GI50,[37],> 100 µM (inactive)
same,GI50,[38],> 100 µM (inactive)
same,GI50,[39],> 100 µM (inactive)
same,GI50,[40],> 100 µM (inactive)
same,GI50,[41],> 100 µM (inactive)
same,GI50,[42],> 100 µM (inactive)
same,GI50,[43],> 100 µM (inactive)
same,GI50,[44],> 100 µM (inactive)
same,GI50,[45],> 100 µM (inactive)
same,GI50,[46],> 100 µM (inactive)
same,GI50,[47],> 100 µM (inactive)
same,GI50,[48],> 100 µM (inactive)
same,GI50,[49],> 100 µM
same,GI50,[50],> 100 µM (inactive)
same,GI50,[51],> 100 µM (inactive)
same,GI50,[52],> 100 µM (inactive)
CNC(=O)CN(CC(N)=O)C(=O)NC,GI50,[1],> 100 µM (inactive)
same,GI50,[2],> 100 µM (inactive)
same,GI50,[3],> 100 µM (inactive)
same,GI50,[4],> 100 µM (inactive)
same,GI50,[5],> 100 µM (inactive)
same,GI50,[6],> 100 µM (inactive)
same,GI50,[7],> 100 µM (inactive)
same,GI50,[8],> 100 µM (inactive)
same,GI50,[9],> 100 µM (inactive)
same,GI50,[10],> 100 µM (inactive)
same,GI50,[11],> 100 µM (inactive)
same,GI50,[13],> 100 µM (inactive)
same,GI50,[53],> 100 µM (inactive)
same,GI50,[14],> 100 µM (inactive)
same,GI50,[54],> 100 µM (inactive)
same,GI50,[15],> 100 µM (inactive)
same,GI50,[16],> 100 µM (inactive)
same,GI50,[18],> 100 µM (inactive)
same,GI50,[19],> 100 µM (inactive)
same,GI50,[20],> 100 µM (inactive)
same,GI50,[21],> 100 µM (inactive)
same,GI50,[55],> 100 µM (inactive)
same,GI50,[22],> 100 µM (inactive)
same,GI50,[23],> 100 µM (inactive)
same,GI50,[25],> 100 µM (inactive)
same,GI50,[26],> 100 µM (inactive)
same,GI50,[56],> 100 µM (inactive)
same,GI50,[27],> 100 µM (inactive)
same,GI50,[28],> 100 µM (inactive)
same,GI50,[57],> 100 µM (inactive)
same,GI50,[29],> 100 µM (inactive)
same,GI50,[30],> 100 µM (inactive)
same,GI50,[31],> 100 µM (inactive)
same,GI50,[32],> 100 µM (inactive)
same,GI50,[33],> 100 µM (inactive)
same,GI50,[35],> 100 µM (inactive)
same,GI50,[36],> 100 µM (inactive)
same,GI50,[37],> 100 µM (inactive)
same,GI50,[38],> 100 µM (inactive)
same,GI50,[39],> 100 µM (inactive)
same,GI50,[40],> 100 µM (inactive)
same,GI50,[41],> 100 µM (inactive)
same,GI50,[42],> 100 µM (inactive)
same,GI50,[43],> 100 µM (inactive)
same,GI50,[44],> 100 µM (inactive)
same,GI50,[45],> 100 µM (inactive)
same,GI50,[46],> 100 µM (inactive)
same,GI50,[48],> 100 µM (inactive)
same,GI50,[58],> 100 µM (inactive)
same,GI50,[59],> 100 µM (inactive)
same,GI50,[49],> 100 µM
same,GI50,[50],> 100 µM (inactive)
same,GI50,[51],> 100 µM (inactive)
same,GI50,[52],> 100 µM (inactive)
COc1ccc(-c2cc(-c3ccco3)c(C#N)c(=O)n2C2OC(OC(=O)c3ccccc3)C(OC(=O)c3ccccc3)C2OC(=O)c2ccccc2)cc1 (stereo unspecified),GI50,[1],> 100 µM (inactive)
same,GI50,[2],> 10 µM (inactive)
same,GI50,[3],> 100 µM (inactive)
same,GI50,[4],> 100 µM (inactive)
same,GI50,[5],> 100 µM (inactive)
same,GI50,[6],> 100 µM (inactive)
same,GI50,[7],> 100 µM (inactive)
same,GI50,[8],> 100 µM (inactive)
same,GI50,[9],> 10 µM (inactive)
same,GI50,[10],> 100 µM (inactive)
same,GI50,[11],33.1 µM (inactive)
same,GI50,[12],> 100 µM (inactive)
same,GI50,[13],62.5 µM (inactive)
same,GI50,[53],> 100 µM (inactive)
same,GI50,[14],> 100 µM (inactive)
same,GI50,[54],13.6 µM (inactive)
same,GI50,[15],> 100 µM (inactive)
same,GI50,[16],> 100 µM (inactive)
same,GI50,[17],40.2 µM (inactive)
same,GI50,[18],> 100 µM (inactive)
same,GI50,[19],> 100 µM (inactive)
same,GI50,[20],14.4 µM (inactive)
same,GI50,[21],23.9 µM (inactive)
same,GI50,[55],> 100 µM (inactive)
same,GI50,[22],> 100 µM (inactive)
same,GI50,[23],46 µM (inactive)
same,GI50,[24],> 100 µM (inactive)
same,GI50,[25],> 100 µM (inactive)
same,GI50,[56],52.6 µM (inactive)
same,GI50,[27],> 100 µM (inactive)
same,GI50,[28],72.1 µM (inactive)
same,GI50,[29],> 100 µM (inactive)
same,GI50,[30],50.2 µM (inactive)
same,GI50,[31],> 100 µM (inactive)
same,GI50,[32],58.6 µM (inactive)
same,GI50,[33],> 100 µM (inactive)
same,GI50,[34],> 100 µM (inactive)
same,GI50,[36],63.5 µM (inactive)
same,GI50,[37],> 100 µM (inactive)
same,GI50,[38],> 100 µM (inactive)
same,GI50,[40],> 100 µM (inactive)
same,GI50,[41],> 100 µM (inactive)
same,GI50,[42],> 100 µM (inactive)
same,GI50,[43],> 100 µM (inactive)
same,GI50,[44],> 100 µM (inactive)
same,GI50,[45],> 100 µM (inactive)
same,GI50,[46],> 100 µM (inactive)
same,GI50,[47],> 100 µM (inactive)
same,GI50,[48],> 100 µM (inactive)
same,GI50,[58],> 100 µM (inactive)
same,GI50,[59],> 100 µM (inactive)
same,GI50,[49],> 100 µM
same,GI50,[50],> 100 µM (inactive)
same,GI50,[51],63.4 µM (inactive)
same,GI50,[52],> 100 µM (inactive)
